In US10183947B2, “Pyrazole derivatives useful as 5-lipoxygenase activating protein (FLAP) inhibitors” (ASTRAZENECA AB, priority 2015, dated 2019):
Like-named read-outs stand apart in the source and are kept apart here.

What was measured:
[1] = target: FLAP (human ALOX5AP expressed in COS-7 cell membranes) (Homo sapiens (Human), UniProt P20292); assay: FLAP Binding Assay (Test A), competition binding with 3H-MK591 as tracer; details: competition with 3H-MK591 (2 nM), membranes from COS-7 cells expressing human ALOX5AP, 60 min at rt
FLAP (human ALOX5AP expressed in COS-7 cell membranes), sequence (P20292 whole entry): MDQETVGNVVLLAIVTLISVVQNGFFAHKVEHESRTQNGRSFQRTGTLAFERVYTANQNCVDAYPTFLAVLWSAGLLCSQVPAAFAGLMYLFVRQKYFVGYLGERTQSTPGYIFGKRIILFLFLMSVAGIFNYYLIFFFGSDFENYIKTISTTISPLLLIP
Method: FLAP Binding Assay (Test A) Compounds were tested in a competition binding assay using ^3H-MK591 as tracer. […] Med. Chem. […] A 100,000×g pellet from COS-7 cells stably transfected with a plasmid expressing human ALOX5AP was the source of FLAP. […] Following filtration, filter plates were dried 12 h at RT (or 50° C. for 1 hour). 50 μL scintillant was then added, the filterplates were sealed and radioactivity was measured in a microbeta counter. Specific binding was defined as total binding minus non-specific binding. Total binding was defined as ^3H-MK591 bound to membranes in the absence of competitor, non-specific binding was defined as ^3H-MK591 in the presence of 0.1 mM MK-591. IC50 values were determined by plotting % inhibition versus log compound concentration and using a one site dose response model.

[2] = system: LTB4 production in fresh human whole blood; assay: FLAP Whole Blood Assay (Test B), inhibition of LTB4 production; assay type: cell-based; details: then calcium ionophore A23187, LTB4 by EIA
Method: FLAP Whole Blood Assay (Test B)
Compounds were tested for the inhibition of LTB4 production in fresh human whole blood obtained by venapuncture using heparin to prevent clotting. 1.5 μL compounds or DMSO carrier were dispensed into the wells of a 96-well deep-well plate in 3-fold dilution series. 500 μL hepamised whole blood was then added followed by incubation at 37° C. for 30 min (method A) or 4 h (method B). 100 μL blood was subsequently transferred in triplicate to pre-dispensed 0.5 μL 2 mM calcium ionophore (calcimycin; A23187) in a second 96-well plate. Following incubation at 37° C. for 20 min, the assays were stopped by adding 10 μL of stop solution (100 mM EGTA, pH 7.4) and the plate was transferred to ice. The plate was centrifuged at 3000 rpm at 4° C. for 10 min and […] was transferred to a fresh 96 well plate containing 90 μL pre-dispensed EIA assay buffer (0.1 M phosphate buffer+0.1% BSA). LTB4 was then measured using reagents from a commercial EIA (Cayman Chemicals). LTB4 production was defined as the LTB4 level in the presence of a given concentration of test compound minus the LTB4 level in the presence of 50 nM 5-[[4-[(2S,4R)-4-hydroxy-2-methyl-tetrahydropyran-4-yl]-2-thienyl]sulfanyl]-1-methyl-indolin-2-one. (Preparation of 5-[[4-[(2S,4R)-4-hydroxy-2-methyl-tetrahydropyran-4-yl]-2-thienyl]sulfanyl]-1-methyl-indolin-2-one was described in Org. Process Res. Dev., 2005, 9, 555-569 or EP623614 B1). Inhibition of LTB4 production was defined as the LTB4 level in the presence of a given concentration of test compound expressed as a % of the LTB4 level in the presence of DMSO. IC50 values were determined by plotting % inhibition versus log compound concentration and using a one site dose response model.

[3] = 0.5 h, method A: compound incubated with human whole blood at 37° C. for 30 min, read-out: IC50 nM (method A)
[4] = method B: compound incubated with human whole blood at 37° C. for 4 h, read-out: IC50 nM (method B)

SMILES	IC50 [1] [nM]	IC50 [2, 3] [nM]	IC50 [2, 4] [nM]
Cc1cc(-c2ccc(C(=O)C3CCCCC3C(=O)Nc3cnn(C)c3C#N)cc2)[nH]n1 (racemic) [Example 46, (1R,2R and 1S,2S)—N-(5-Cyano-1-methyl-1H-pyrazol-4-yl)-2-[4-(3-methyl-1H-pyrazol-5-yl)benzoyl]cyclohexanecarboxamide]	86	170	–
Cc1cc(-c2ccc(C(=O)C3CCCCC3C(=O)Nc3cn[nH]c3C(N)=O)c(F)c2)[nH]n1 (single isomer, unassigned) [Example 38, 4-[({(1R,2R or 1S,2S)-2-[2-Fluoro-4-(3-methyl-1H-pyrazol-5-yl)benzoyl]cyclohexyl}carbonyl)amino]-1H-pyrazole-5-carboxamide]	20	–	69
Cn1ncc(NC(=O)C2CCCCC2C(=O)c2ccc(-c3cc[nH]n3)cc2)c1C#N (single isomer, unassigned) [Example 18b, (1S,2S or 1R,2R)—N-(5-Cyano-1-methyl-1H-pyrazol-4-yl)-2-[4-(1H-pyrazol-3-yl)benzoyl]cyclohexanecarboxamide]	28	–	114
Cc1cc(NC(=O)C2CCCCC2C(=O)c2ccc(-c3ccn[nH]3)cc2)sn1 (racemic) [Example 48, (1R,2R and 1S,2S)—N-(3-Methyl-1,2-thiazol-5-yl)-2-[4-(1H-pyrazol-5-yl)benzoyl]cyclohexanecarboxamide]	23	270	–
Cn1cc(NC(=O)C2CCCCC2C(=O)c2ccc(-c3ccn[nH]3)cc2F)c(C(N)=O)n1 (single isomer, unassigned) [Example 35, 4-[({(1R,2R or 1S,2S)-2-[2-Fluoro-4-(1H-pyrazol-5-yl)benzoyl]-cyclohexyl}carbonyl)amino]-1-methyl-1H-pyrazole-3-carboxamide]	83	–	79
Cc1cc(-c2ccc(C(=O)[C@@H]3CCCC[C@H]3C(=O)Nc3cn[nH]c3)cc2)[nH]n1 [Example 6, (1R,2R)-2-[4-(3-Methyl-1H-pyrazol-5-yl)benzoyl]-N-(1H-pyrazol-4-yl)cyclohexanecarboxamide]	57	–	380
